# Non-standard residues stand in square brackets, D forms with d. Aib = CC(C)(N)C(=O)O
# Legend:
# [1] = design: method as in PMID 28465589; conditions: mice, ref [36], cited from earlier work
# primary EOC cells = assay: GFP-EOC (primary) cell adhesion onto mesothelium (HPMC monolayer); type: cell-based, human; conditions: three independent experiments in triplicate
# Description: HPMCs (1 × 10^5 cells/well) suspended in growth medium, were seeded in 24-well plates and allowed to adhere for about 20 h until they form a confluent monolayer, prior to seeding GFP-tagged EOC cells suspended in growth medium plus diluents or 10 nM RI-3. At the indicated times, plates were accurately washed with PBS and cell-associated fluorescence was assessed by a fluorescence plate reader a fluorescence plate reader (Victor 3, Perkin Elmer), using 485 nm excitation and 535 nm emission filters. The experiments were performed three times in triplicate.
# A2780 cells = assay: Adhesion of A2780 cells onto extracellular matrix proteins; type: cell-based, Human; conditions: A2780 cells lacking uPAR and FPR1, 10 nM RI-3; BSA, Vn, Fn, Lm or Coll; three independent experiments
# Description: Adhesion assays were performed using 24 multi-well plates coated with 1% BSA, 5 μg mL vitronectin (Vn), 5 μg mL fibronectin (Fn), 5 μg mL laminin (Lm) or 15 μg mL collagen (Coll) diluted in serum-free medium. Sub-confluent cells were harvested by a mild trypsinization, incubated with 10% FBS / DMEM for 1 h at 37 °C, 5% CO2, acid treated with a buffer containing 50 mM glycin-HC1, 0.1 M NaCl, pH 3 for 4 min at 22 °C, to remove receptor-bound ligands, and counted. Viable cells (2 × 10^5 cells per well) were plated in serum-free medium, in the absence or presence of 2 μg/mL R3 mAb recognizing the DI uPAR domain, 2 μg/mL399 anti-uPAR (American Diagnostica), 2 μg/mL anti-uPAR84-95 (PRIMM), 2 μg/mL anti-α-tubulin (Cell Signaling) Abs or 10 nM RI-3, and allowed to adhere for 2 h at 37 °C, 5% CO2. […] At the end of the assay, adherent cells were removed with 0.05% trypsin, and counted. The number of adherent cells was expressed as a percentage of the basal cell adhesion (CTRL). […]
# Supplementary file 13046_2019_1465_MOESM1_ESM.zip: Additional file 1: Figure S1. […] The number of adherent cells was expressed as a percentage of CTRL. […] Then, A2780 cells suspended in growth medium plus/minus 10 nM RI-3 were seeded onto the mesothelial cell monolayer and invasion of mesothelium by A2780 cells was monitored in real-time as changes in Cell Index due to breaking of the monolayer integrity. […]
# SKOV-3 cells = assay: HPMC invasion by SKOV-3 cells monitored in real time; type: cell-based, Human; conditions: 10 nM RI-3; xCELLigence cell index, slopes 20–24 h; quadruplicate representative of 3 replicates
# Description: HPMCs (5 × 10^3 cells/well) suspended in growth medium, were seeded in E-16-well plates and allow to adhere for 18–20 h until they form a confluent monolayer, prior to seeding EOC cells (2 × 10^4 cells/well) in growth medium plus/minus 10 nM RI-3. When HPMCs are challenged with invading cells, there is a drop in electrical resistance within 2–4 h which is monitored in real-time as the Cell Index changes due to the rupture of mesothelium. The experiments were performed three times in quadruplicate.
# [2] = ref [36]; cited from earlier work
# Text: On the other hand, despite a variety of natural and synthetic compounds that interfere with FPR1-dependent pathways antagonizing FPR1functions have been described, the majority had off-target effects, discouraging their clinical development.
# [3] = test system: SKOV-3 and primary EOC cells; assay: Cell adhesion to vitronectin, SKOV-3 and primary EOC cells (summary statement); type: cell-based, human; conditions: pre-exposure
# Description: Adhesion assays were performed using 24 multi-well plates coated with 1% BSA, 5 μg mL vitronectin (Vn), 5 μg mL fibronectin (Fn), 5 μg mL laminin (Lm) or 15 μg mL collagen (Coll) diluted in serum-free medium. Sub-confluent cells were harvested by a mild trypsinization, incubated with 10% FBS / DMEM for 1 h at 37 °C, 5% CO2, acid treated with a buffer containing 50 mM glycin-HC1, 0.1 M NaCl, pH 3 for 4 min at 22 °C, to remove receptor-bound ligands, and counted. Viable cells (2 × 10^5 cells per well) were plated in serum-free medium, in the absence or presence of 2 μg/mL R3 mAb recognizing the DI uPAR domain, 2 μg/mL399 anti-uPAR (American Diagnostica), 2 μg/mL anti-uPAR84-95 (PRIMM), 2 μg/mL anti-α-tubulin (Cell Signaling) Abs or 10 nM RI-3, and allowed to adhere for 2 h at 37 °C, 5% CO2. […] At the end of the assay, adherent cells were removed with 0.05% trypsin, and counted. The number of adherent cells was expressed as a percentage of the basal cell adhesion (CTRL). The experiments were performed at least three times in triplicate.
# This assay was performed using E-16-well plates and the xCELLigence Real Time Cell Analysis technology. […] The impedance value of each well was automatically monitored in real-time for at least 2 h and expressed as a cell index value. […]
substance,measurement,setting,value
"Ac-[dY][dR][Aib][dR]-NH2 [RI-3, retro-inverso peptide, uPAR/FPR1 antagonist]",body weight,[1]; versus vehicle-treated animals,no change of body weight
same,tolerability in vivo,[1],well tolerated in vivo
same,visible side-effects,[1],no visible side-effects
same,reduction of EOC cell adhesion onto mesothelium,"primary EOC cells; 10 nM RI-3, after 5 min",72%
same,reduction of EOC cell adhesion onto mesothelium,"primary EOC cells; 10 nM RI-3, after 10 min",51%
same,reduction of EOC cell adhesion onto mesothelium,"primary EOC cells; 10 nM RI-3, after 20 min",47%
same,reduction of EOC cell adhesion onto mesothelium,"primary EOC cells; 10 nM RI-3, after 40 min",46%
same,A2780 cell adhesion,A2780 cells,ineffective
same,capability of SKOV-3 cells to disrupt mesothelial cell monolayer,SKOV-3 cells,abrogated the capability of SKOV-3 cells to disrupt mesothelial cell monolayer
same,cell proliferation,[2],does not affect cell proliferation
same,extent of cell adhesion to vitronectin (abstract),[3],decreases to basal level
